# According to US20100204203A1, “Chemical Compounds 637: Pyridopyrimidinediones as PDE4 Inhibitors” (priority 2007, published 2010):
# Structures can show the parent of a compound that is named as a salt.
# Target: recombinant Human Phosphodiesterase B2 (PDE4B2) (Homo sapiens, UniProt Q07343)
# Assay: Human Phosphodiesterase B2 Radiometric Assay (yttrium silicate SPA beads, [3H]cyclic AMP)
# Type: biochemical
# Conditions: recombinant human PDE4B2, radiometric SPA assay, 8 nM [3H]cyclic AMP; read-out: PDE4B2 pIC50 (converted)
# Outline: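 Read-out is scintillation proximity: yttrium silicate beads (with 18 mM ZnSO4, added to stop the reaction) bind 5′AMP formed from 8 nM [3H]cAMP over 20 min. Beforehand, compound and 0.1 mg/mL enzyme were preincubated 30 min at 30 °C in pH 7.5 HEPES buffer with MgCl2, EGTA and Brij 35; pIC50 values were curve-fitted.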
# recombinant Human Phosphodiesterase B2 (PDE4B2), sequence (Q07343 1-564 isoform Q07343-2): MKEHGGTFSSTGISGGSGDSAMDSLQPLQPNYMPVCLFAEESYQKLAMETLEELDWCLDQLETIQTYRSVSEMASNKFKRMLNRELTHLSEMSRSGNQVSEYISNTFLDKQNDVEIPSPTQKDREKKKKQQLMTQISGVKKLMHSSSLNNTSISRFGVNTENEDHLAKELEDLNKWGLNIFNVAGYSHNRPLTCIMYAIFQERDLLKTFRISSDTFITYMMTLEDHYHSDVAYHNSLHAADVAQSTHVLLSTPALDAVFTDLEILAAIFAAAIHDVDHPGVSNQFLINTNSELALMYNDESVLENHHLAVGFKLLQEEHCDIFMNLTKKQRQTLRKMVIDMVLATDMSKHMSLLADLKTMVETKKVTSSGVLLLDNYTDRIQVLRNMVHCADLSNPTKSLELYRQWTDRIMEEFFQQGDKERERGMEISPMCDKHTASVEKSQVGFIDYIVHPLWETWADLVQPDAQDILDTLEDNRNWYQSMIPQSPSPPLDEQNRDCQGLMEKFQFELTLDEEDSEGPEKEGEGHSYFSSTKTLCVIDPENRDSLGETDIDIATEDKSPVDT
row,IC50 [nM],SMILES
1,2,"NC1(C(=O)N[C@H]2CC[C@@H](n3c(=O)c4cc(F)cnc4n(-c4cccc(-c5ccccc5CN5CCOCC5)c4)c3=O)CC2)CCCC1 [Example 70, 1-amino-N-{cis-4-[6-fluoro-1-[2′-(morpholin-4-ylmethyl)biphenyl-3-yl]-2,4-dioxo-1,4-dihydropyrido[2,3-d]pyrimidin-3(2H)-yl]cyclohexyl}cyclopentanecarboxamide trifluoroacetate salt]"
2,0.0794,"O=C(N[C@H]1CC[C@@H](n2c(=O)c3cc(F)cnc3n(-c3cccc(-c4ccc(F)cc4O)c3)c2=O)CC1)c1cn2cc(F)ccc2n1 [Example 80, 6-fluoro-N-{cis-4-[6-fluoro-1-(4′-fluoro-2′-hydroxybiphenyl-3-yl)-2,4-dioxo-1,4-dihydropyrido[2,3-d]pyrimidin-3(2H)-yl]cyclohexyl}imidazo[1,2-a]pyridine-2-carboxamide]"
3,0.631,"CC(C)N1CCN(Cc2ccc(-c3cccc(-n4c(=O)n([C@H]5CC[C@@H](NCc6cccc(C#N)c6)CC5)c(=O)c5cc(F)cnc54)c3)cc2)CC1 [Example 259, 3-[({cis-4-[6-fluoro-1-{4′-[(4-isopropylpiperazin-1-yl)methyl]biphenyl-3-yl}-2,4-dioxo-1,4-dihydropyrido[2,3-d]pyrimidin-3(2H)-yl]cyclohexyl}amino)methyl] benzonitrile]"
4,0.0794,"CCN(CC)CC(=O)N[C@H]1CC[C@@H](n2c(=O)c3cc(F)cnc3n(-c3cccc(-c4ccc(CN5CCN(C(C)C)CC5)cc4)c3)c2=O)CC1 [Example 241, N^2,N^2-diethyl-N-{cis-4-[6-fluoro-1-{4′-[(4-isopropylpiperazin-1-yl)methyl]biphenyl-3-yl}-2,4-dioxo-1,4-dihydro-pyrido[2,3-d]pyrimidin-3(2H)-yl]cyclohexyl} glycinamide]"
5,0.1,"O=C(N[C@H]1CC[C@@H](n2c(=O)c3cc(F)cnc3n(-c3cccc(-c4ccccn4)c3)c2=O)CC1)c1cn2cc(F)ccc2n1 [Example 55, 6-fluoro-N-{cis-4-[6-fluoro-2,4-dioxo-1-(3-pyridin-2-ylphenyl)-1,4-dihydropyrido[2,3-d]pyrimidin-3(2H)-yl]cyclohexyl}imidazo[1,2-a]pyridine-2-carboxamide]"
6,0.0251,"CCCCN(C)Cc1ccc(-c2cccc(-n3c(=O)n([C@H]4CC[C@@H](NC(=O)c5cn6c(n5)CCCC6)CC4)c(=O)c4cc(F)cnc43)c2)cc1 [Example 132, N-{cis-4-[1-(4′-{[butyl(methyl)amino]methyl}biphenyl-3-yl)-6-fluoro-2,4-dioxo-1,4-dihydropyrido[2,3-d]pyrimidin-3(2H)-yl]cyclohexyl}-5,6,7,8-tetrahydroimidazo[1,2-a]pyridine-2-carboxamide]"
7,0.0316,"CN1CCCN(Cc2ccc(-c3cccc(-n4c(=O)n([C@H]5CC[C@@H](NC(=O)CN6CCCCC6)CC5)c(=O)c5cc(F)cnc54)c3)cc2)CC1 [Example 292, N-{cis-4-[6-fluoro-1-{4′-[(4-methyl-1,4-diazepan-1-yl)methyl]biphenyl-3-yl}-2,4-dioxo-1,4-dihydropyrido[2,3-d]pyrimidin-3(2H)-yl]cyclohexyl}-2-piperidin-1-ylacetamide]"
8,0.0316,"Cc1nc(C(=O)N[C@H]2CC[C@@H](n3c(=O)c4cc(F)cnc4n(-c4cccc(-c5ccc(CN6CCC(N7CCCCC7)CC6)cc5)c4)c3=O)CC2)cs1 [Example 357, N-{cis-4-[1-[4′-(1,4′-bipiperidin-1′-ylmethyl)biphenyl-3-yl]-6-fluoro-2,4-dioxo-1,4-dihydropyrido[2,3-d]pyrimidin-3(2H)-yl]cyclohexyl}-2-methyl-1,3-thiazole-4-carboxamide]"
9,0.316,"O=C(N[C@H]1CC[C@@H](n2c(=O)c3cc(F)cnc3n(-c3cccc(-c4ccc(CN5CCCCC5)cc4)c3)c2=O)CC1)c1cn2c(n1)CCCC2 [Example 119, N-{cis-4-[6-fluoro-2,4-dioxo-1-[4′-(piperidin-1-ylmethyl)biphenyl-3-yl]-1,4-dihydropyrido[2,3-d]pyrimidin-3(2H)-yl]cyclohexyl}-5,6,7,8-tetrahydroimidazo[1,2-a]pyridine-2-carboxamide]"
10,0.316,"CN(Cc1ccc(-c2cccc(-n3c(=O)n([C@H]4CC[C@@H](NC(=O)C5(N(C)C)CC5)CC4)c(=O)c4cc(F)cnc43)c2)cc1)C(C)(C)C [Example 207, N-{cis-4-[1-(4′-{[tert-butyl(methyl)amino]methyl}biphenyl-3-yl)-6-fluoro-2,4-dioxo-1,4-dihydropyrido[2,3-d]pyrimidin-3(2H)-yl]cyclohexyl}-1-(dimethylamino)cyclopropanecarboxamide]"
11,0.0126,"CN(C)C(=O)CN1CCN(Cc2ccc(-c3cccc(-n4c(=O)n([C@H]5CC[C@@H](NC(=O)c6cn7c(n6)CCCC7)CC5)c(=O)c5cc(F)cnc54)c3)cc2)CC1 [Example 137, N-{cis-4-[1-[4′-({4-[2-(dimethylamino)-2-oxoethyl]piperazin-1-yl}methyl)biphenyl-3-yl]-6-fluoro-2,4-dioxo-1,4-dihydropyrido[2,3-d]pyrimidin-3(2H)-yl]cyclohexyl}-5,6,7,8-tetrahydroimidazo[1,2-a]pyridine-2-carboxamide]"
12,3.98,"CCCNC1(C(=O)N[C@H]2CC[C@@H](n3c(=O)c4cc(F)cnc4n(-c4cccc(-c5ccccc5CN5CCOCC5)c4)c3=O)CC2)CCCC1 [Example 275, N-{cis-4-[6-Fluoro-1-[2′-(morpholin-4-ylmethyl)biphenyl-3-yl]-2,4-dioxo-1,4-dihydropyrido[2,3-d]pyrimidin-3(2H)-yl]cyclohexyl}-1-(propylamino)cyclopentanecarboxamide]"
13,0.631,"Cc1ccc(CN[C@H]2CC[C@@H](n3c(=O)c4cc(F)cnc4n(-c4cccc(-c5ccc(CN6CCN(C(C)C)CC6)cc5)c4)c3=O)CC2)s1 [Example 261, 6-fluoro-1-{4′-[(4-isopropylpiperazin-1-yl)methyl]biphenyl-3-yl}-3-(cis-4-{[(5-methyl-2-thienyl)methyl]amino}cyclohexyl)pyrido[2,3-d] pyrimidine-2,4(1H,3H)-dione]"

# The next lines start with the compound.
row,SMILES,IC50 [nM]
1,CC(C)(C)OC(=O)N[C@H]1CC[C@@H](n2c(=O)c3cc(F)cnc3n(-c3cccc(-c4ccccc4CN4CCOCC4)c3)c2=O)CC1 [Example 45],0.316
2,"CN(CCO)Cc1cc(O)ccc1-c1cccc(-n2c(=O)n([C@H]3CC[C@@H](NCc4cn5cc(F)ccc5n4)CC3)c(=O)c3cc(F)cnc32)c1 [Example 329, 6-fluoro-3-(cis-4-{[(6-fluoroimidazo[1,2-a]pyridin-2-yl)methyl]amino}cyclohexyl)-1-(4′-hydroxy-2′-{[(2-hydroxyethyl) (methyl)amino]methyl}biphenyl-3-yl)pyrido[2,3-d]pyrimidine-2,4(1H,3H)-dione]",0.126
3,"CC(C)N(CCO)Cc1ccc(-c2cccc(-n3c(=O)n([C@H]4CC[C@@H](NC(=O)C5(N(C)C)CC5)CC4)c(=O)c4cc(F)cnc43)c2)cc1 [Example 126, 1-(dimethylamino)-N-{cis-4-[6-fluoro-1-(4′-{[(2-hydroxyethyl)(isopropyl)amino]methyl}biphenyl-3-yl)-2,4-dioxo-1,4-dihydropyrido[2,3-d]pyrimidin-3(2H)-yl]cyclohexyl}cyclopropane-carboxamide]",0.0631
4,"O=C(N[C@H]1CC[C@@H](n2c(=O)c3cc(F)cnc3n(-c3cccc(C#Cc4cccnc4)c3)c2=O)CC1)c1cn2ccccc2n1 [Example 6, N-{cis-4-[6-fluoro-2,4-dioxo-1-[3-(pyridin-3-ylethynyl)phenyl]-1,4-dihydropyrido[2,3-d]pyrimidin-3(2H)-yl]cyclohexyl}imidazo[1,2-a]pyridine-2-carboxamide]",0.00794
5,"C[C@@H](O)CN(C)Cc1cc(O)ccc1-c1cccc(-n2c(=O)n([C@H]3CC[C@@H](NCc4cn5cc(F)ccc5n4)CC3)c(=O)c3cc(F)cnc32)c1 [Example 320, 6-fluoro-3-(cis-4-{[(6-fluoroimidazo[1,2-c]pyridin-2-yl)methyl]amino}cyclohexyl)-1-(4′-hydroxy-2′-{[[(2R)-2-hydroxypropyl](methyl)amino]methyl}biphenyl-3-yl)pyrido[2,3-d]pyrimidine-2,4(1H,3H)-dione]",0.2
6,"Cc1c(CN[C@H]2CC[C@@H](n3c(=O)c4cc(F)cnc4n(-c4cccc(-c5ccc(O)cc5CN5CCOCC5)c4)c3=O)CC2)nc2ccccn12 [Example 336, 6-fluoro-1-[4′-hydroxy-2′-(morpholin-4-ylmethyl)biphenyl-3-yl]-3-(cis-4-{[(3-methylimidazo[1,2-a]pyridin-2-yl)methyl]amino}cyclohexyl)pyrido[2,3-d]pyrimidine-2,4(1H,3H)-dione]",0.0316
7,"CN(Cc1cc(O)ccc1-c1cccc(-n2c(=O)n([C@H]3CC[C@@H](NCc4cn5cc(F)ccc5n4)CC3)c(=O)c3cc(F)cnc32)c1)C1(CO)CC1 [Example 321, 6-fluoro-3-(cis-4-{[(6-fluoroimidazo[1,2-a]pyridin-2-yl)methyl]amino}cyclohexyl)-1-(4′-hydroxy-2′-{[[1-(hydroxymethyl)cyclopropyl](methyl)amino]methyl}biphenyl-3-yl)pyrido[2,3-c]pyrimidine-2,4(1H,3H)-dione]",0.1
8,"O=C(N[C@H]1CC[C@@H](n2c(=O)c3cc(F)cnc3n(-c3cccc(Sc4ccccc4)c3)c2=O)CC1)c1cn2cc(F)ccc2n1 [Example 44, 6-fluoro-N-{cis-4-[6-fluoro-2,4-dioxo-1-[3-(phenylthio)phenyl]-1,4-dihydropyrido[2,3-d]pyrimidin-3(2H)-yl]cyclohexyl}imidazo[1,2-a]pyridine-2-carboxamide]",0.0631
9,"O=c1c2cc(F)cnc2n(-c2cccc(-c3ccc(O)cc3CN3CCC[C@@H]3CO)c2)c(=O)n1[C@H]1CC[C@@H](NCc2cn3cc(F)ccc3n2)CC1 [Example 332, 6-fluoro-3-(cis-4-{[(6-fluoroimidazo[1,2-a]pyridin-2-yl)methyl]amino}cyclohexyl)-1-(4′-hydroxy-2′-{[(2R)-2-(hydroxymethyl)pyrrolidin-1-yl]methyl}biphenyl-3-yl)pyrido[2,3-d]pyrimidine-2,4(1H,3H)-dione]",0.0501
